Reference: patent US20130225529A1, “PHOSPHO-ESTER DERIVATIVES AND USES THEREOF” (priority 2012, published 2013)

Assays:
skin papillomas = assay: DMBA/TPA-induced skin papillomas in FVB mice; format: in vivo
Description: This initiation-promotion protocol leads to papillomas by wk 10, and in a fraction of the mice to SCC by wk 20. […] Criteria similar to those used for human papilloma classification were applied to assess disease progression: hyperplasia→papilloma (Pap 1-3)→microinvasive SCC (M1-3)→invasive SCC. On wk 20, the study was terminated.

[1] = PK study of topical PSG versus oral PS; conditions: mouse, skin, topical or ocular
[2] = Drug levels in papillomas (HPLC); conditions: equal dose of PS orally
U87 cells = assay: 24-h growth inhibition of U87 glioblastoma cells; format: cell-based; conditions: Homo sapiens, U-87 MG; U87, 24 h
Procedure: U87 cells were treated with sulindac and ibuprofen as well as with the compounds. U87 is a human primary glioblastoma cell line, formally known as U-87 MG. This cell line has epithelial morphology, and is one of the most frequently used glioblastoma cell lines.

β-catenin signaling = assay: β-catenin transcriptional activity (TOPflash) in HEK293T cells; format: cell-based; conditions: 5 μM each; control 1.23±0.11
[3] = Inhalation versus oral delivery of PS; format: in vivo, mice
[4] = format: in vivo, mice; conditions: 55° C. hot plate, 30 min after single i.p. dose; 100 mg/kg, PI-PEG 1,600 mg/kg; control 1.91 ± 0.46

CCOP(=O)(OCC)OCCCCOC(=O)CC1=C(C)/C(=C/c2ccc([S+](C)[O-])cc2)c2ccc(F)cc21 (stereo not drawn) [PS 118]
papilloma multiplicity, oral administration (skin papillomas; oral): failed to reduce papilloma multiplicity | reduction of tumor burden (average tumor volume/mouse) (skin papillomas; topical): ~90% | thickness of the epidermis (skin papillomas; topical): partial effect | reduction of tumor number (papillomas/mouse) (skin papillomas; topical application): merely stabilized disease progression | AUC(0-t) [1]: 684 µM·h | Cmax [1]: 36.1 µM | Tmax [1]: 2 h | level of PS in papillomas [2]: 0.3 ± 0.2 nmol/g | IC50 (U87 cells): 114 µM | luciferase/renilla activity (β-catenin signaling): 0.76±0.03 | PS levels in plasma ([3]; inhalation and oral): undetectable | level of intact PS in lungs ([3]; inhalational 6.5 mg/kg): > 20 nmol/g | total drug levels in lungs, inhalation vs oral ([3]; mouse, in vivo, po): significantly higher compared to those by oral administration | level of intact PS in lungs ([3]; oral 150 mg/kg): < 2 nmol/g | latency values (mean±SD) [4]: 4.55 ± 1.00 s
